Assay results as given in patent publication US9487528B2 (CHIESI FARMACEUTICI S.p.A., priority 2014, dated 2016).

Molecular target: T1, human neutrophil elastase (HNE) (Homo sapiens, UniProt P08246)
T1 construct: purchased Sigma E8140
T1 sequence (P08246 30-267): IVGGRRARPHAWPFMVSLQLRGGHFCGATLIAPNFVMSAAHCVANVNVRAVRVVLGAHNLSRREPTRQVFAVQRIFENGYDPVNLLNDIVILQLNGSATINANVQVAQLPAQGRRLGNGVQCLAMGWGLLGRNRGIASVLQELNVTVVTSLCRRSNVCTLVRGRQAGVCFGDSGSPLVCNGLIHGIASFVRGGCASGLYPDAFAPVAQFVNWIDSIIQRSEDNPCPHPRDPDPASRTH
Experiment: HNE enzyme assay (human neutrophil elastase enzyme activity, fluorogenic peptide substrate)
Type: biochemical
Conditions: human leukocyte elastase 0.00072 U/mL; MeOSuc-Ala-Ala-Pro-Val-AMC 100 μM; 25° C., 30 minutes; at least two separate experiments; read-out: HNE inhibition (IC50 values)
Method: Compounds of this invention were tested for potency in a human neutrophil elastase (HNE) enzyme activity assay.
Assays were performed in 96-well plates in a total assay volume of 100 μL. The final concentration of elastase enzyme (human leukocyte elastase, Sigma E8140) was 0.00072 U/mL. The peptide substrate (MeOSuc-Ala-Ala-Pro-Val-AMC, Calbiochem #324740) was used at a final concentration of 100 μM. The final concentration of DMSO was 1% in the assay buffer (0.05M Tris.HCl, 0.1M NaCl, 0.1M CaCl2, 0.0005% brij-35, pH 7.5). The enzymatic reaction was started by addition of the enzyme and incubated at 25° C. for 30 minutes. After incubation, the reaction was stopped by addition of soybean trypsin inhibitor (Sigma T9003) at a final concentration of 50 μg/well. Fluorescence was measured using a Molecular Devices fluorescence plate reader using 380 nm excitation and 460 nm emission wavelengths.
A dose response to each compound was performed and the effect of the compound in each experiment was expressed as a percentage inhibition of the control enzyme fluorescence. Dose response curves were plotted and compound potency (IC50) was determined. Compounds were tested in at least two separate experiments.

Structure (SMILES)	IC50 [nM]
CC1=C(C#N)[C@@H](c2ccc(C#N)cc2CCO)n2c(n[nH]c2=O)N1c1cccc(C(F)(F)F)c1 [Example 36, (R)-5-[4-Cyano-2-(2-hydroxy-ethyl)-phenyl]-7-methyl-3-oxo-8-(3-trifluoromethyl-phenyl)-2,3,5,8-tetrahydro-[1,2,4]triazolo[4,3-a]pyrimidine-6-carbonitrile]	< 20
CC1=C(C#N)[C@@H](c2ccc(C#N)cc2C(O)CO)n2c(n[nH]c2=O)N1c1cccc(C(F)F)c1 (single isomer, unassigned) [Example 39a]	< 20
CC1=C(C#N)[C@@H](c2ccc(C#N)cc2CCO)n2c(n[nH]c2=O)N1c1cccc(C(F)F)c1 (single isomer, unassigned) [Example 38a]	< 20
COC(=O)C1=C(C)N(c2cccc(C(F)(F)F)c2)c2n[nH]c(=O)n2[C@H]1c1ccc(C#N)cc1OC (racemic) [Example 33b]	20 to 100
CC1=C(C#N)[C@@H](c2ccc(C#N)cc2CCS(C)(=O)=O)n2c(n[nH]c2=O)N1c1cccc(C(F)(F)F)c1 [Example 37, (R)-5-[4-Cyano-2-(2-methanesulfonyl-ethyl)-phenyl]-7-methyl-3-oxo-8-(3-trifluoromethyl-phenyl)-2,3,5,8-tetrahydro-[1,2,4]triazolo[4,3-a]pyrimidine-6-carbonitrile]	< 20

The next lines start with the values.

IC50 [nM]	Structure (SMILES)
20 to 100	CC1=C(C#N)[C@@H](c2ccc(C#N)cc2C(O)CO)n2c(n[nH]c2=O)N1c1cccc(C(F)F)c1 (mixture of isomers) [Example 39d, (R) and (S)-5-[4-Cyano-2-(1,2-dihydroxy-ethyl)-phenyl]-8-(3-difluoromethyl-phenyl)-7-methyl-3-oxo-2,3,5,8-tetrahydro-[1,2,4]triazolo[4,3-a]pyrimidine-6-carbonitrile]
100 to 500	CC1=C(C#N)[C@@H](c2ccc(C#N)cc2CCO)n2c(n[nH]c2=O)N1c1cccc(C(F)F)c1 (single isomer, unassigned) [Example 38b]
100 to 500	CC1=C(C#N)C(c2ccc(C#N)cc2C(O)CO)n2c(n[nH]c2=O)N1c1cccc(C(F)F)c1 (single isomer, unassigned) [Example 39b]
< 20	COCCOc1cc(C#N)ccc1[C@@H]1C(C(=O)OC)=C(C)N(c2cccc(C(F)(F)F)c2)c2n[nH]c(=O)n21 (single isomer, unassigned) [Example 34a]
20 to 100	COCCOc1cc(C#N)ccc1[C@@H]1C(C(=O)OC)=C(C)N(c2cccc(C(F)(F)F)c2)c2n[nH]c(=O)n21 (single isomer, unassigned) [Example 34b]
< 20	CC1=C(C#N)[C@@H](c2ccc(C#N)cc2C(O)CO)n2c(n[nH]c2=O)N1c1cccc(C(F)(F)F)c1 (single isomer, unassigned) [Example 35a]
